As usually defined, the inhibition is the change of the read-out against control, counted positive when it falls.

Data on 11 molecules can be found in US8580784B2, “Method for treating a disease related to the glucocorticoid receptor” (Santen Pharmaceutical Co., Ltd., priority 2006, dated 2013).

In the assay the target is T1, Recombinant human GR (Homo sapiens, UniProt P04150).
T1 construct: purchased Invitrogen P2816
T1 sequence (P04150 1-777): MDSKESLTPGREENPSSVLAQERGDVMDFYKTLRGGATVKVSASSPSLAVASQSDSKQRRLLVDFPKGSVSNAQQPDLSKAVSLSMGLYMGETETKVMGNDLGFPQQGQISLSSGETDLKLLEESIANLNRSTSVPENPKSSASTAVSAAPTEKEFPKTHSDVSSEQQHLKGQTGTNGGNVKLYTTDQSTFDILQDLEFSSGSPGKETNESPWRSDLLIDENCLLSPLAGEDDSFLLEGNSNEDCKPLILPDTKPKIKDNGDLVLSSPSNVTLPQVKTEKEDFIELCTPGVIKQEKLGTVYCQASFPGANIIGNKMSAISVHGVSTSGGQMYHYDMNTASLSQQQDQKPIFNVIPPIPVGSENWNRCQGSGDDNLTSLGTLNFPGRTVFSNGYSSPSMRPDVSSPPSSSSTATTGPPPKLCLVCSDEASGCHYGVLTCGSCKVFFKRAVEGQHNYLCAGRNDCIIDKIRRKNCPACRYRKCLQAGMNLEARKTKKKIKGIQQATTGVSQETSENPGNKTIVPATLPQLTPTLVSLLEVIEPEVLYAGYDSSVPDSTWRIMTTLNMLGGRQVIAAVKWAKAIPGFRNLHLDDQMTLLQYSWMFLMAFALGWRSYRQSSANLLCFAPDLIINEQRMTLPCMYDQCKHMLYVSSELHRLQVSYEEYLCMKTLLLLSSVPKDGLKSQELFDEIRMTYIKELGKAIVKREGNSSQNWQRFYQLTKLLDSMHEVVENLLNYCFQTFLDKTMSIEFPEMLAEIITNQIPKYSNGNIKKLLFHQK
Nature of the assay: Evaluation test for binding activity to glucocorticoid receptor: receptor competitor assay by fluorescence polarization (Invitrogen GR competitor assay kit, cat No. P2816). The following applies: 20 μM test compound solution, 10 μL per well plus 5 μL 4×GS1 and 5 μL 4×GR solution; room temperature 2 to 4 hours; a ratio of 100% or more is indicated by 100%. How it is done: A detailed explanation of this matter will be described in the section of “Pharmacological Test” in Examples described below. In order to find the usefulness of the present compound as a pharmaceutical, a glucocorticoid receptor competitor assay was carried out by a fluorescence polarization method by using a glucocorticoid receptor competitor assay kit (manufactured by Invitrogen, cat No. P2816) to study the glucocorticoid receptor binding activity of the present compound.
1. Evaluation Test for Binding Activity to Glucocorticoid Receptor (hereinafter referred to as “GR”)
In order to evaluate a binding activity to GR, a receptor competitor assay was carried out by a fluorescence polarization method. In the assay, a GR competitor assay kit (manufactured by Invitrogen, cat No. P2816) was used, and a procedure was carried out according to the protocol attached to the kit. Hereinafter, the specific method will be described.
(Preparation of Reagents)
GR screening buffer: A buffer containing 10 mM potassium phosphate (pH 7.4), 20 mM sodium molybdate (Na2MoO4), 0.1 mM ethylene diamine tetraacetic acid (EDTA), 5 mM dithiothreitol (DTT), 0.1 mM stabilizing peptide and 2% dimethylsulfoxide was prepared.
4×GS1 solution: Fluormone™ GS1, which is a fluorescent glucocorticoid ligand, was diluted with GR screening buffer, whereby a 4 nM solution was prepared.
4×GR solution: Recombinant human GR was diluted with GR screening buffer, whereby a 16 nM solution was prepared.
(Preparation of Test Compound Solution)
After a test compound was dissolved in dimethylsulfoxide, the resulting solution was diluted with GR screening buffer, whereby a 20 μM test compound solution was prepared.
(Test Method and Measurement Method)
1) The test compound solution was added in an amount of 10 μL into each well of a 384-well plate, and then, 4×GS1 solution and 4×GR solution were added in an amount of 5 μL into each well, respectively.
2) The plate was incubated in a dark place at room temperature for 2 to 4 hours.
3) By using a multimode plate reader, Analyst™ HT (manufactured by LJL Biosystems), fluorescence polarization of each well was measured. As the blank, a well containing GR screening buffer in place of the test compound and 4×GS1 solution was used.
4) The same procedure as that in the above 1) to 3) was carried out except that GR screening buffer was used in place of the test compound solution, and the obtained result was taken as the negative control.
5) The same procedure as that in the above 1) to 3) was carried out except that 2 mM dexamethasone was used in place of the test compound solution, and the obtained result was taken as the positive control.
(Calculation Equation of GR Binding Ratio)
A GR binding ratio (%) was calculated from the following equation. GR binding ratio(%)=100×[1−(fluorescence polarization of test compound solution−fluorescence polarization of positive control solution)/(fluorescence polarization of negative control solution−fluorescence polarization of positive control solution)] (Test Results and Discussion)
(In general: Polarisation of emitted light reports the rotation of a fluorescent probe.)
`COc1cc(OC(=O)c2occc2C)ccc1-c1ccc2c(c1CNc1cc(F)ccc1C)C(C)=CC(C)(C)N2` [Compound 1-42, 5-(5-Fluoro-2-methylphenylaminomethyl)-6-[2-methoxy-4-(3-methylfuran-2-ylcarbonyloxy)phenyl]-2,2,4-trimethyl-1,2-dihydroquinoline]: the inhibition at 20 µM (stock) worked out at 100%.
`COc1ccccc1NCc1c(-c2ccc(OC(=O)N3CCOCC3)cc2OC)ccc2c1C(C)=CC(C)(C)N2` [Compound 1-44, 6-[2-Methoxy-4-(morpholin-4-ylcarbonyloxy)phenyl]-5-(2-methoxyphenylaminomethyl)-2,2,4-trimethyl-1,2-dihydroquinoline]: the inhibition at 20 µM (stock) came to 96%.
Same read-out and setting: as for `COc1cc(OC(=O)N2CCOCC2)ccc1-c1ccc2c(c1CNc1cc(F)ccc1C)C(C)=CC(C)(C)N2` [Compound 1-45, 5-(5-Fluoro-2-methylphenylaminomethyl)-6-[2-methoxy-4-(morpholin-4-ylcarbonyloxy)phenyl]-2,2,4-trimethyl-1,2-dihydroquinoline], the figure is 100%.
Consider `CCCS(=O)(=O)Oc1ccc(-c2ccc3c(c2CNc2ccccc2OC)C(C)=CC(C)(C)N3)c(OC)c1` [Compound 2-1, 5-(2-Methoxyphenylaminomethyl)-6-(2-methoxy-4-propylsulfonyloxyphenyl)-2,2,4-trimethyl-1,2-dihydroquioline], for which the inhibition at 20 µM is 100%.
Regarding `COc1ccccc1NCc1c(-c2ccc(OS(=O)(=O)C(C)C)cc2OC)ccc2c1C(C)=CC(C)(C)N2` [Compound 2-2, 6-(4-Isopropylsulfonyloxy-2-methoxyphenyl)-5-(2-methoxyphenylaminomethyl)-2,2,4-trimethyl-1,2-dihydroquioline], the inhibition at 20 µM (stock) stood at 100%.
On the same count and under the same terms, to `COc1ccccc1NCc1c(-c2ccc(OS(C)(=O)=O)cc2OC)ccc2c1C(C)=CC(C)(C)N2` [Compound 2-5, 6-(2-Methoxy-4-methylsulfonyloxyphenyl)-5-(2-methoxyphenylaminomethyl)-2,2,4-trimethyl-1,2-dihydroquioline] belongs 93%; to `CCCS(=O)(=O)Oc1ccc(-c2ccc3c(c2CNc2cc(F)ccc2C)C(C)=CC(C)(C)N3)c(OC)c1` [Compound 2-6, 5-(5-Fluoro-2-methylphenylaminomethyl)-6-(2-methoxy-4-propylsulfonyloxyphenyl)-2,2,4-trimethyl-1,2-dihydroquioline], 100%; to `COc1ccccc1NCc1c(-c2ccc(OS(=O)(=O)C3CC3)cc2OC)ccc2c1C(C)=CC(C)(C)N2` [Compound 2-7, 6-(4-Cyclopropylsulfonyloxy-2-methoxyphenyl)-5-(2-methoxyphenylaminomethyl)-2,2,4-trimethyl-1,2-dihydroquioline], 100%.
Same read-out and setting: to `COc1ccccc1NCc1c(-c2ccc(OS(=O)(=O)C3CCCC3)cc2OC)ccc2c1C(C)=CC(C)(C)N2` [Compound 2-10, 6-(4-Cyclopentylsulfonyloxy-2-methoxyphenyl)-5-(2-methoxyphenylaminomethyl)-2,2,4-trimethyl-1,2-dihydroquioline] belongs 100%; to `COc1cc(OS(C)(=O)=O)ccc1-c1ccc2c(c1CNc1cc(F)ccc1C)C(C)=CC(C)(C)N2` [Compound 2-11, 5-(5-Fluoro-2-methylphenylaminomethyl)-6-(2-methoxy-4-methylsulfonyloxyphenyl)-2,2,4-trimethyl-1,2-dihydroquioline], 100%.
On to `COc1ccccc1NCc1c(-c2ccc(OC(=O)Nc3cccnc3)cc2OC)ccc2c1C(C)=CC(C)(C)N2` [Compound 4-3, 5-(2-Methoxyphenylaminomethyl)-6-[2-methoxy-4-(pyridin-3-ylaminocarbonyloxy)phenyl]-2,2,4-trimethyl-1,2-dihydroquioline], for which the inhibition at 20 µM was determined as 91%.
